Data: PMC3432061, “Biochemical and Mass Spectrometric Characterization of Human N-Acylethanolamine-Hydrolyzing Acid Amidase Inhibition” (PLoS ONE, 2012)

What was measured:
[1] = target: T1, hNAAA (Homo sapiens, UniProt Q02083); assay: 8 point radioactive assay, hydrolysis of [14C]N-palmitoylethanolamine by purified hNAAA; format: biochemical; details: 2 hours preincubation, PEA 25 µM
T1 construct: the active mature form of the enzyme is a heterodimer, consisting of a non-covalent complex of the α- and β-subunits; hexa-histidine (C); made in house; host or cells: HEK293 (stably transfected)
T1 sequence (Q02083 126-359 limits assumed): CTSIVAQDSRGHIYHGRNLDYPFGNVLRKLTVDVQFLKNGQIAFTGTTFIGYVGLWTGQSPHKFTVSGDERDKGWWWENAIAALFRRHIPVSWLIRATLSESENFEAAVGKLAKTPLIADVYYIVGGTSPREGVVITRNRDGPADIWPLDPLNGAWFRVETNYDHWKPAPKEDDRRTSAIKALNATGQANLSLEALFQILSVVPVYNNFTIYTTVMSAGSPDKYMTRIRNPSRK
T1 sequence (Q02083 29-125 limits assumed): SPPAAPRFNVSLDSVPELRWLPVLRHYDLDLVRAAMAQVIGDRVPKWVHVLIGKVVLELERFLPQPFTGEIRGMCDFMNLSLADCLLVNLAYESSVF
Experimental: (§1) To set up 8 point fluorescent and radioactive assays for each point, the compound in 45 µL DMSO and purified activated NAAA (final enzyme concentration of 0.25 µg/mL) in 810 µL of NAAA assay buffer were incubated for 2 hours in order for the covalent compounds to reach full inhibition. For the fluorescent assays, 190 µL of each of the above samples (in triplicate) were transferred to a 96 well plate, followed by addition of 10 µL of a PAMCA stock solution in DMSO for a final PAMCA concentration of 10 µM. After 5 minutes of agitation on a shaking plate, the reaction was allowed to proceed at 37°C for 30 minutes and enzyme activity was monitored and calculated as previously described. The complete description of the novel fluorescent 8 point assay to determine the IC50 value for compounds inhibiting hNAAA activity will be detailed elsewhere.
The 8 point radioactive assays, similar to that described by Saturnino et. al., [10] were performed by taking 95 µL of the enzyme-compound solution described above and adding a 5 µL solution of [^1,2 −14C]N-palmitoylethanolamine (10,000 c.p.m./sample) in DMSO, with a final PEA concentration of 25 µM. The reaction was performed for 30 minutes at 37°C and terminated by addition of 200 µL chloroform/methanol (1∶1, v/v). The aqueous layer containing the [^1,2 −14C]Ethanolamine was quantified by reading with a 1450 Microbeta Walluc Trilux Liquid Scintillation and Luminescence Counter. Inhibition constants were calculated using pro Fit software (Quantum Soft, Uetikon am See, Switzerland) and a Levenberg-Marquardt algorithm.

[2] = test system: recombinant rat NAAA; details: substrate heptadecenoylethanolamide, HEK293 cell lysate, LC/MS based assay; cited from earlier work
[3] = target: T1, hNAAA; assay: Fluorometric assay to determine kinact/Ki for irreversible hNAAA inhibition; format: biochemical; details: for kinact: PAMCA 12.4 µM = 2×Km, no preincubation, read for 120 minutes; for kinact/K I: second order rate constant
Experimental: The k inact and K I values for covalent inhibitors were determined similar to Mileni et. al. […] The data for each inhibitor concentration ([I]) were fit to a first order equation (Eq. 1) shown below using KaleidaGraph (Synergy Software, Reading, PA) in order to determine k observed (k obs), where Ft is the fluorescence at time t, F 0 is the fluorescence at t = infinite time, F 1 is the total fluorescence change, and k obs is the first order rate constant for enzyme inactivation. To determine the inhibitor dissociation constant (K I) and the first order rate constant for enzyme inactivation at infinite inhibitor concentration (k inact), the k obs values for each [I] obtained above were fit to a curve using pro Fit software and a Levenberg-Marquardt algorithm according to Eq. 2, which simplifies to Eq. 3 at [S] = 2×K m as used in this experiment. [drawing 1] (1) [drawing 2] (2) [drawing 3] (3)

[4] = target: T1, hNAAA; assay: MALDI-TOF MS and MS/MS analysis of tryptic digest of inhibitor treated hNAAA; details: 10-fold molar excess of compound, 37°C, 2 hours, pH 4.5
Experimental: To 10 µg (0.2 nmol) of purified and activated NAAA in 18 µL of 100 mM citrate-sodium phosphate buffer (pH 4.5) 2 µL of a DMSO solution containing 2 nmol of the compound of interest were added or 2 µL DMSO. The inhibitor and DMSO treated enzyme solutions were incubated at 37°C for 2 hours and then desalted prior to digestion. These were desalted by re-concentrating 3 times to original volume after 25 fold dilution with 50 mM ammonium bicarbonate buffer, pH 8.0, using 10 kDa membrane Ultra-0.5 Centrifugal Filters (Millipore). The NAAA samples were incubated overnight at 37°C with MS-grade trypsin (“Trypsin Gold”, Promega) at a NAAA:trypsin mass to mass ratio of 100∶1. The tryptic digested NAAA was analyzed immediately or frozen at −80°C for future analysis.
0.5 µL of the trypsin digested NAAA was mixed with 0.5 µL α-cyano-4-hydroxycinnaminic acid matrix solution (5 mg/mL dissolved in 50% acetonitrile, 50% water, and 0.1% trifluoroacetic acid) and spotted onto an Opti-TOF 384-well plate insert. MALDI-TOF MS spectra were acquired on a 4800 MALDI TOF/TOF mass spectrometer (Applied Biosystems, Foster City, CA) fitted with a 200-Hz solid state UV laser (wavelength 355 nm). The spectra of the peptides were acquired in reflectron mode. The conditions used for the MS experiments and instrument calibration were performed as described by Zvonok et. al.

[5] = target: T1, hNAAA; assay: Rapid dilution experiment with hNAAA (reversibility); format: biochemical; details: AM6701: 100 nM for 120 min, twenty-fold dilution to 5 nM, up to 24 h
[6] = target: T1, hNAAA; assay: 8 point fluorescent assay, hydrolysis of PAMCA by purified hNAAA; format: biochemical; details: for IC50: purified hNAAA, 2 hours preincubation, fluorescent assay, PAMCA 10 µM
Experimental: We previously described the fluorogenic substrate N-(4-methyl coumarin)palmitamide (PAMCA), which is hydrolyzed by NAAA to the fluorescent compound 7-amino-4-methyl coumarin (AMC) and palmitic acid. For hNAAA inhibition we conducted three point concentration assays with compounds to determine their potencies and ranges of enzyme inhibition. Purified activated NAAA (final concentration of 0.25 µg/mL) was incubated in assay buffer made up to a total volume of 180 µL, followed by addition of the compound dissolved in 10 µL DMSO (along with DMSO neat for the control sample) with the final concentrations for each compound of 1, 10, and 100 µM, in triplicate on a 96 well plate. These samples were allowed to incubate for 15 min at room temperature and then 10 µL of a PAMCA stock solution in DMSO (final PAMCA concentration 10 µM) was added. After 5 minutes of agitation on a shaking plate, the reaction was allowed to proceed at 37°C for 30 minutes and enzyme activity was monitored and calculated as previously described.
as §1

[7] = target: T1, hNAAA; set-up: method as in PMID 22040171; details: substrate of hNAAA; cited from earlier work
[8] = test system: FAAH; set-up: method as in PMID 22270809; details: cited from earlier work
[9] = target: T2, rFAAH (Rattus norvegicus, UniProt P97612); assay: rFAAH inhibition (selectivity); format: biochemical
T2 sequence (P97612 1-579): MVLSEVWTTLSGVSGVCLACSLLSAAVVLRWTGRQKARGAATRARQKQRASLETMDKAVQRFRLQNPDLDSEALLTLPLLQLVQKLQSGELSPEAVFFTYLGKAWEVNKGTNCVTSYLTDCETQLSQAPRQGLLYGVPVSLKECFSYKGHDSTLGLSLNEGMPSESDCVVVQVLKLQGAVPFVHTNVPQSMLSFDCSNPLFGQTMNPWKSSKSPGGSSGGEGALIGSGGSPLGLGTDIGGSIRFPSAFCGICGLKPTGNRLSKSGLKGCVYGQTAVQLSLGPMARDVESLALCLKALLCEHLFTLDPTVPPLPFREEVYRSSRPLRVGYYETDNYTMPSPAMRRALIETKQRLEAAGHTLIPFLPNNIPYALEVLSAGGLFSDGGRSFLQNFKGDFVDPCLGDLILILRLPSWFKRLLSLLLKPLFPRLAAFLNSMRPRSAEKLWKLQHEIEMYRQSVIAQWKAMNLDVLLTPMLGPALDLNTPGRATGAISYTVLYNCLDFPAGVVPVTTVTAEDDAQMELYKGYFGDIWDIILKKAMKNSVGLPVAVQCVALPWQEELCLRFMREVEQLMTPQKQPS

[10] = target: T1, hNAAA; assay: Lineweaver-Burk (double reciprocal) plot of hNAAA inhibition; format: biochemical
[11] = target: T3, hMGL (Homo sapiens, UniProt Q99685); assay: hMGL inhibition (selectivity); format: biochemical
T3 sequence (Q99685 1-303): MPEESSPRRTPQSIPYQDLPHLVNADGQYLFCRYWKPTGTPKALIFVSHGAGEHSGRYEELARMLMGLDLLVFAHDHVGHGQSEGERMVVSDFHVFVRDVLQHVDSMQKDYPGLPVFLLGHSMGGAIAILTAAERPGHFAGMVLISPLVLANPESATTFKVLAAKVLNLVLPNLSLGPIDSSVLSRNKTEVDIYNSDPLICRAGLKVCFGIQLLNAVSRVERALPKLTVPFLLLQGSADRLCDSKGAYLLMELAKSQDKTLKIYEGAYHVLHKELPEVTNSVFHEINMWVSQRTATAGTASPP

| SMILES | IC50 [1] | IC50 [2] | kinact [3] | kinact/K I [3] | Covalent modification of hNAAA seen by MALDI-TOF MS of tryptic digest [4] | Recovery of enzyme activity after rapid dilution [5] | IC50 [6] | Km [7] | IC50 [8] | Decrease of IC50 on extension of preincubation time to 120 min ([6]; hNAAA, data not presented) | IC50 [9] | Type of inhibition (Lineweaver-Burk plot) [10] | IC50 [11] | Effect of longer pre-incubation on IC50 ([6]; hNAAA) |
| --- | --- | --- | --- | --- | --- | --- | --- | --- | --- | --- | --- | --- | --- | --- |
| O=C(N[C@H]1COC1=O)OCc1ccccc1 [N-Cbz-serine β-lactone, N-Benzyloxycarbonyl-L-serine β-lactone, reference compound] | 1.9 ± 0.5 µM | 2.96 ± 0.3 µM | 0.000383 s⁻¹ | 290 M⁻¹ s⁻¹ | Cys126 modified by the inhibitor | slow regeneration of enzyme catalytic activity | 1.7 ± 0.2 µM |  |  |  |  |  |  |  |
| CCCCCCCCCCCCCCCC(=O)NCCO [PEA, N-palmitoylethanolamine] |  |  |  |  |  |  |  | 21 µM |  |  |  |  |  |  |
| CN(C)C(=O)n1nnc(Cc2ccc(-c3ccccc3)cc2)n1 [AM6701, 5-((biphenyl-4-yl)methyl)-N,N-dimethyl-2H-tetrazole-2-carboxamide] | 0.0072 ± 0.0025 µM |  | 0.0007 s⁻¹ | 55000 M⁻¹ s⁻¹ | carbamylation of the N-terminal cysteine | no recovery of enzyme activity | 0.0077 ± 0.0002 µM |  | 0.0012 µM | more than 50 fold |  |  |  |  |
| CCCCCCCCCCCCCCCN=C=S [AM9023, 1-isothiocyanatopentadecane] | 0.6 ± 0.13 µM |  |  |  | identical | fully recovered | 0.35 ± 0.07 µM |  |  |  | > 10 µM | competitive type inhibitor | > 10 µM | unaffected |
| CCCCCCCCCCCCCCCC(=O)Nc1ccc2c(C)cc(=O)oc2c1 [PAMCA, N-(4-methylcoumarin)palmitamide] |  |  |  |  |  |  |  | 6.2 µM |  |  |  |  |  |  |
